Assays:
Assay in all cases: relative viability (nuclei count vs DMSO), 5 days (fraction); higher = more cells survive
Lapatinib = compound: CS(=O)(=O)CCNCc1ccc(-c2ccc3ncnc(Nc4ccc(OCc5cccc(F)c5)c(Cl)c4)c3c2)o1 [Lapatinib]
How it was run: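 Following overnight incubation at 37 °C, lung cancer cell lines in 1536-well plates were pinned with five library-drug doses (not always all listed) in √10 steps on vehicle-anchored plates. The cells then spent 5 days without medium change before a combined fix, permeabilisation and Hoechst stain, 4× imaging and MetaXpress nuclear counts. Viability is the treated-to-vehicle ratio of nuclei, taken as the median across plates. Only plates with control CV below 25% and at least one doubling passed.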

Lapatinib + OSI-027 = compound: CS(=O)(=O)CCNCc1ccc(-c2ccc3ncnc(Nc4ccc(OCc5cccc(F)c5)c(Cl)c4)c3c2)o1 [Lapatinib] + COc1cccc2cc(-c3nc([C@H]4CC[C@H](C(=O)O)CC4)n4ncnc(N)c34)[nH]c12 [OSI-027] (partner 0.5 µM)
How it was run: (§1)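 Each reported value is a median over duplicate plates. It expresses relative viability: treated-well nuclei count divided by vehicle-well nuclei count. Lung cancer cell lines in 1536-well plates were dosed by pin tool a day after seeding, alone with one drug or with a fixed anchor-drug dose plus five library-drug doses (not always all listed) in √10 steps, and nuclei were counted after 5 days.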

Lapatinib + Tozasertib = compound: CS(=O)(=O)CCNCc1ccc(-c2ccc3ncnc(Nc4ccc(OCc5cccc(F)c5)c(Cl)c4)c3c2)o1 [Lapatinib] + Cc1cc(Nc2cc(N3CCN(C)CC3)nc(Sc3ccc(NC(=O)C4CC4)cc3)n2)n[nH]1 [Tozasertib] (partner 0.1 µM)
How it was run: as §1

Wnt-C59 + Dasatinib = compound: CC1=NC=CC(=C1)C2=CC=C(C=C2)CC(=O)NC3=CC=C(C=C3)C4=CN=CC=C4 [Wnt-C59] + Cc1nc(Nc2ncc(C(=O)Nc3c(C)cccc3Cl)s2)cc(N2CCN(CCO)CC2)n1 [Dasatinib] (partner 0.075 µM)
How it was run: as §1

Row | Cell Line | relative viability (Lapatinib; 0.02 µM) | relative viability (Lapatinib; 0.06325 µM) | relative viability (Lapatinib; 0.2 µM) | relative viability (Lapatinib; 0.6325 µM) | relative viability (Lapatinib; 2 µM) | relative viability (Lapatinib; 2 µM, anchor plate) | relative viability (Lapatinib + OSI-027; first compound 0.02 µM) | relative viability (Lapatinib + OSI-027; first compound 0.06325 µM) | relative viability (Lapatinib + OSI-027; first compound 0.2 µM) | relative viability (Lapatinib + OSI-027; first compound 0.6325 µM) | relative viability (Lapatinib + OSI-027; first compound 2 µM) | relative viability (Lapatinib + Tozasertib; first compound 0.02 µM) | relative viability (Lapatinib + Tozasertib; first compound 0.06325 µM) | relative viability (Lapatinib + Tozasertib; first compound 0.2 µM) | relative viability (Lapatinib + Tozasertib; first compound 0.6325 µM) | relative viability (Lapatinib + Tozasertib; first compound 2 µM) | relative viability (Wnt-C59 + Dasatinib; first compound 0.001 µM) | relative viability (Wnt-C59 + Dasatinib; first compound 0.01 µM) | relative viability (Wnt-C59 + Dasatinib; first compound 0.03162 µM) | relative viability (Wnt-C59 + Dasatinib; first compound 0.1 µM)
1 | 201T | 0.713 | 0.802 | 0.963 | 0.979 | 0.887 | 1.04 | 0.794 | 0.598 | 0.597 | 0.807 | 0.703 | 0.967 | 0.716 | 0.886 | 0.923 | 0.792 | 0.615 | 0.578 | 0.505 | 0.558
2 | A549 | 0.982 | 0.875 | 0.867 | 0.957 | 0.861 | 0.993 |  |  |  |  |  |  |  |  |  |  |  |  |  | 
3 | A-427 |  | 0.978 | 1 | 0.954 | 0.963 | 1.05 |  | 0.359 | 0.516 | 0.541 | 0.417 |  | 0.252 | 0.209 | 0.231 | 0.185 | 0.71 | 0.682 | 0.768 | 0.798
4 | ABC-1 | 0.721 | 0.793 | 0.939 | 1.04 | 0.912 | 1.18 | 0.532 | 0.321 | 0.706 | 0.702 | 0.477 | 0.155 | 0.187 | 0.156 | 0.155 | 0.16 | 0.509 | 0.605 | 0.506 | 0.592
5 | BEN | 0.793 | 0.907 | 0.935 | 1 | 0.962 | 0.74 |  | 0.279 | 0.298 | 0.288 | 0.25 |  | 0.513 | 0.51 | 0.515 | 0.351 | 0.329 | 0.3 | 0.35 | 0.385
6 | CAL-12T | 0.763 | 0.978 | 0.909 | 0.776 | 0.678 | 0.681 |  | 0.32 | 0.497 | 0.319 | 0.313 |  | 0.274 | 0.333 | 0.273 | 0.122 | 0.505 | 0.391 | 0.475 | 0.437
7 | COR-L23 | 0.978 | 1 | 1.11 | 0.919 | 1.02 | 0.934 | 0.771 | 0.651 | 0.769 | 0.721 | 0.654 | 0.149 | 0.131 | 0.152 | 0.165 | 0.109 | 0.483 | 0.571 | 0.641 | 0.413
8 | COR-L 105 | 0.828 | 0.8 | 0.857 | 0.598 | 0.381 | 0.367 | 0.638 | 0.362 | 0.449 | 0.413 | 0.269 | 0.351 | 0.351 | 0.355 | 0.294 | 0.244 | 0.275 | 0.357 | 0.308 | 0.304
9 | Calu-6 | 0.972 | 0.971 | 1.02 | 1.03 | 0.926 | 1.04 |  |  |  |  |  |  |  |  |  |  |  |  |  | 
10 | ChaGo-K-1 | 0.789 | 0.943 | 0.945 | 1 | 0.797 |  | 0.341 | 0.391 | 0.585 | 0.53 | 0.462 | 0.218 | 0.194 | 0.206 | 0.2 | 0.208 | 0.659 | 0.606 | 0.65 | 0.606
11 | EBC-1 | 0.993 | 0.979 | 0.945 | 0.971 |  |  |  |  |  |  |  |  |  |  |  |  |  |  |  | 
12 | EKVX | 0.645 | 0.755 | 0.943 | 0.811 | 0.336 | 0.216 | 0.594 | 0.502 | 0.575 | 0.58 | 0.325 | 0.366 | 0.333 | 0.448 | 0.273 | 0.143 | 0.575 | 0.511 | 0.527 | 0.451
13 | EMC-BAC-2 |  | 0.8 | 0.734 | 0.985 | 1.04 | 0.917 | 0.339 | 0.277 | 0.377 | 0.392 | 0.346 | 0.309 | 0.344 | 0.309 | 0.319 | 0.299 | 0.327 | 0.36 | 0.34 | 0.341
14 | EPLC-272H |  | 0.733 | 0.959 | 1 | 0.783 | 0.993 |  |  | 0.256 | 0.227 | 0.224 |  |  | 0.21 | 0.2 | 0.239 | 0.399 | 0.269 | 0.399 | 0.36
15 | H3255 | 0.908 | 0.936 | 0.938 | 0.889 | 0.489 | 0.25 | 0.577 | 0.524 | 0.505 | 0.431 | 0.236 | 0.317 | 0.45 | 0.591 | 0.527 | 0.282 | 0.425 | 0.359 | 0.32 | 0.335
16 | HARA | 0.52 | 0.749 | 0.943 | 0.93 | 0.755 | 0.77 |  | 0.214 | 0.474 | 0.328 | 0.239 |  | 0.0893 | 0.0933 | 0.0794 | 0.119 | 0.249 | 0.208 | 0.293 | 0.32
17 | HCC-15 |  | 0.847 | 1.06 | 1.01 | 0.919 | 0.836 |  | 0.386 | 0.682 | 0.727 | 0.612 |  | 0.382 | 0.371 | 0.424 | 0.283 | 0.667 | 0.634 | 0.644 | 0.574
18 | HCC-44 | 0.602 | 0.997 | 0.983 | 1.03 | 0.893 | 1.02 |  | 0.341 | 0.509 | 0.421 | 0.473 |  | 0.622 | 0.81 | 0.762 | 0.725 |  |  |  | 
19 | HCC-78 |  | 0.734 | 0.922 | 0.935 | 0.793 | 0.801 |  | 0.324 | 0.315 | 0.381 | 0.344 |  | 0.327 | 0.407 | 0.377 | 0.328 | 0.392 | 0.428 | 0.387 | 0.419
